Reference: patent publication US20260200849A1, “CATIONIC LIPIDS AND PREPARATION METHOD THEREOF” (RiboX Therapeutics HK Limited, priority 2024, published 2026)

Key:
hEPO = test: In vivo expression by IM: serum hEPO concentration by ELISA; conditions: IM 0.075 mg/kg, male C57BL/6J mice N=3, Formulation 001, RNA 019
Experimental: Circular RNA payloads were suspended in 25 mM Acetate Buffer (pH 4.5). To form LNPs, three volumes of human erythropoietin (hEPO) encoding cirRNA (SEQ ID NO:2), were mixed with one volume of lipids in ethanol solution by microfluidic mixing with the INano™ L+ (Micro& Nano) at a flow rate of 12 ml/min. The molar ratio of ionizable lipid to ribonucleotide was 6. After encapsulation, the particles were dialyzed twice against PBS. The LNP formulation was concentrated to targeted RNA concentration by Amicon® Ultra Centrifugal Filter (100 kDa MWCO) and filtered by a 0.65/0.22 um sterile filter.
6-8 week old, male C57BL/6J mice (N=3) were injected with 0.075 mg*kg−1 of RNA-LNPs encoding for hEPO by intramuscular injection. At 2-/6-/24-/48-/72 h-hours post injection, about 80 μL blood will be harvested and immediately added to the procoagulant containing tube. Stand for 30 min at room temperature and then centrifuged at 2500 g×10 min to obtain serum. About 30 μL serum samples will be aliquoted for hEPO concentration detection by ELISA kit (STEMCELL Technologies).

C57BL/6J mice [1] = test: In vivo expression by ID, whole-body/injection site skin/lymph node luminescence; conditions: intradermal 0.15 mg/kg, 72 h post injection, female C57BL/6J mice N=3, Formulation 001, RNA 331
Experimental: 7-8 week old, female C57BL/6J mice (N=3) were injected with 0.15 mg*kg−1 of RNA-LNPs encoding for firefly-luciferase by intradermal injection. At 72-hours post injection, animals were intraperitoneally injected with 15 mg/mi of Luciferin substrate and whole-body/injection site skin/lymph node luminescence were determined by a bioluminescent in vivo imaging system (IVIS).

C57BL/6J mice [2] = test: In vivo expression by IM, luciferase RNA-LNPs, whole-body/injection site muscle/organ luminescence; conditions: IM 1.0 mg/kg, 24 h post injection, male C57BL/6J mice N=3, Formulation 001, RNA 331
Experimental: 6-8 week old, male C57BL/6J mice (N=3) were injected with 1.0 mg*kg−1 of RNA-LNPs encoding for firefly-luciferase by intramuscular injection. At 24-hours post injection, animals were intraperitoneally injected with 15 mg/ml of Luciferin substrate and whole-body/injection site muscle/liver/spleen/kidney/heart/lung luminescence were determined by a bioluminescent in vivo imaging system (IVIS).

C57BL/6J mice [3] = test: In vivo expression by IV, 1.0 mg/kg luciferase RNA-LNPs, whole-body and organ IVIS luminescence; conditions: Formulation No. 001, RNA No. 331; male C57BL/6J mice, 1.0 mg*kg−1 intravenous, 24-hours post injection
Procedure, shortened: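 Male C57BL/6J mice, 6-8 weeks old (N=3), received 1.0 mg*kg−1 firefly-luciferase RNA-LNPs IV. At 24 h post-dose, luciferin (15 mg/ml) was given IP, and whole-body, liver, spleen, kidney, small and large intestine luminescence was imaged by IVIS.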

MCP-1 = test: In vivo tolerability by IV: serum MCP-1 by Luminex; design: species or system C57BL/6J mice; conditions: Formulation No. 001, RNA No. 331, male C57BL/6J mice, 1.0 mg*kg/1 intravenous
Procedure, shortened: (§1)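 Male C57BL/6J mice aged 6-8 weeks (N=3) received 1.0 mg*kg−1 firefly-luciferase RNA-LNPs intravenously, with PBS as negative control. Serum taken at 2 and 24 h post-injection was assayed for MCP-1 and IL-6 by Luminex.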

IL-6 = test: In vivo tolerability by IV: serum IL-6 by Luminex; design: species or system C57BL/6J mice; conditions: Formulation No. 001, RNA No. 331, male C57BL/6J mice, 1.0 mg*kg/1 intravenous
Procedure, shortened: as §1

Structure (SMILES) | Injection site Skin (p/s) (C57BL/6J mice [1]) | Lymph node (p/s) (C57BL/6J mice [1]) | Whole body (p/s) (C57BL/6J mice [1]) | Heart (p/s) (C57BL/6J mice [2]) | Injection site muscle (p/s) (C57BL/6J mice [2]) | Kidney (p/s) (C57BL/6J mice [2]) | Liver (p/s) (C57BL/6J mice [2]) | Lung (p/s) (C57BL/6J mice [2]) | Spleen (p/s) (C57BL/6J mice [2]) | Whole body (p/s) (C57BL/6J mice [2]) | other results
CCCCC/C=C\C/C=C\CCCCCCCC(=O)NC(COC(=O)NCCN1CCCCC1)C(=O)OCCCCCCCC(=O)OC(CCCCCCCC)CCCCCCCC (centres unmarked) [Lipid 549] | 3.41E+06 | 3.17E+06 | 4.38E+07 | 8.09E+05 | 2.75E+08 | 1.23E+07 | 1.76E+08 | 1.24E+06 | 6.26E+07 | 1.10E+09 | hEPO conc. (ng/mL) at 2 h (hEPO; 2 h): 2.47 ng/mL; hEPO conc. (ng/mL) at 6 h (hEPO; 6 h): 7.26 ng/mL; hEPO conc. (ng/mL) at 24 h (hEPO; 24 h): 12.57 ng/mL; hEPO conc. (ng/mL) at 48 h (hEPO; 48 h): 2.61 ng/mL; hEPO conc. (ng/mL) at 72 h (hEPO; 72 h): 0.87 ng/mL
CCCCCCCCC(CCCCCC)C(=O)OCCCCCCCCOC(=O)NC(COC(=O)NCCN1CCCCC1)C(=O)OCCCCCCCCOC(=O)C(CCCCCC)CCCCCCCC (centres unmarked) [Lipid 888] | – | – | – | – | – | – | – | – | – | – | Kidney (p/s) (C57BL/6J mice [3]): 2.72E+07 p/s; Large intestine (p/s) (C57BL/6J mice [3]): 1.07E+08 p/s; Liver (p/s) (C57BL/6J mice [3]): 4.61E+09 p/s; Small intestine (p/s) (C57BL/6J mice [3]): 8.59E+08 p/s; Spleen (p/s) (C57BL/6J mice [3]): 2.55E+08 p/s; Whole body (p/s) (C57BL/6J mice [3]): 4.10E+09 p/s; MCP-1 at 2 h (MCP-1; 2 hours post injection): 396 pg/mL; MCP-1 at 24 h (MCP-1; 24 hours post injection): 206 pg/mL; IL-6 at 2 h (IL-6; 2 hours post injection): 5.5 pg/mL; IL-6 at 24 h (IL-6; 24 hours post injection): 5.71 pg/mL
CCCCCCCC/C=C\CCCCCCCC(=O)NC(COC(=O)NCCN1CCCCC1)C(=O)OCCCCCCCCOC(=O)C(CCCCCC)CCCCCCCC (centres unmarked) [Lipid 700] | 1.75E+07 | 1.57E+06 | 8.00E+07 | 1.79E+05 | 3.07E+08 | 9.03E+05 | 8.73E+07 | 3.11E+05 | 1.21E+07 | 5.65E+08 | –
